Laboratory results from publication PMC4389225, “Triaminopyrimidine is a fast-killing and long-acting antimalarial clinical candidate” (Nature Communications, 2015).

How the values were obtained:
[1] = Plasma protein binding, mouse
Dd2 bc-1 ELQ-300 = test: [3H]-hypoxanthine incorporation assay, Dd2 bc-1 ELQ-300 resistant; format: cell-based, Plasmodium falciparum; conditions: Plasmodium falciparum, DD2
Protocol: Supplementary Table 3: Compound 9 and 12 retain their activity against Pf strains harbouring mutations to novel antimalarial agents in clinical development. Compound 9 and 12 were tested for their antiplasmodial activity against a panel of Pf strains known to harbour mutations conferring resistance to novel agents under clinical development. Parasite growth inhibition is measured using the [3H]-hypoxanthine incorporation assay. IC50s are established for each strain (n ≥2) and compared to the IC50 of Dd2 (standard pan-resistant […]

[2] = Plasma protein binding, dog
Dd2-6R F2 C5 = test: SYBR green growth assay, Dd2-6R F2 C5; conditions: Plasmodium falciparum
Protocol: Assays were carried out in 384-well format with three technical replicates within an assay day and biological replicates carried out on three different assay days to assign a final EC50.
The drug was then washed off and the parasites were allowed to recover in normal growth media.

[3] = Blood-plasma ratio, mouse; format: in vitro ADME

Cc1nc(Nc2ncc(N3CCN(C)[C@H](C)C3)c(Nc3cc(C)n(C)n3)n2)cc(C2CC2)c1F [compound 12, (R)-N2-(4-cyclopropyl-5-fluoro-6-methylpyridin-2-yl)-N4-(1,5-dimethyl-1H-pyrazol-3-yl)-5-(3,4-dimethylpiperazin-1-yl)pyrimidine-2,4-diamine]
fraction unbound ([1]; Plasma protein binding (% free)): 0.0055 | fraction unbound ([1]; Plasma protein binding, Plasma fu, fraction unbound): 0.005 | IC50 (Dd2 bc-1 ELQ-300): 8.2 nM | Observed blood CL (Observed blood CL, mouse; Mouse): 32-35 % LBF | clearance (Observed blood CL, mouse; mouse, blood): 48 to 53 mL/min/kg | Plasma protein binding (% free) ([2]; Dog): 3.8 % free | fraction unbound ([2]; dog, plasma): 0.038 | IC50 (Dd2-6R F2 C5): 70.1 nM | B:P ratio [3]: 1.2
